Measured values as given in patent US6140368A, “Naphthols useful in antiviral methods” (The Regents of the University of California, priority 1998, dated 2000).
Read-outs that look alike come from different tables or passages of the source.

Experiments:
HIV integrase [1] = biological target: T1, HIV integrase (Human immunodeficiency virus type 1 group M subtype B, UniProt P04585); experiment: biochemical; settings: read-out: Inhibition of 3' processing activity (IC50)
HIV integrase [2] = biological target: T1, HIV integrase; experiment: biochemical; settings: read-out: Inhibition of strand transfer (IC50)
[3] = biological target: HIV reverse transcriptase (Human immunodeficiency virus type 1 group M subtype B, UniProt P03366); experiment: Reverse transcriptase scintillation proximity assay (Example 4, Table 2); assay type: biochemical; settings: for remaining activity at 10 µM: 0.05 h, 10 μM inhibitor, relative to dimethyl sulfoxide = 100%, read-out: % RT activity remaining at 10 μM
Procedure: Reverse transcriptase ("RT") activity is measured using a scintillation proximity assay kit available from Amersham Life Sciences, Inc., which uses a biotin/streptavidin bead capture system. RNA-dependent polymerase activity is measured using purified […] and a synthetic 17mer/50mer RNA-DNA template-primer containing biotin at the 5' end of the DNA. The template-primer, buffer, dNTP, and inhibitor are incubated for 10 minutes at 37° C. before the RT is added. The final 100 μl reaction mixture contains: 39 nm of template primer, buffer (40 mM tris HCl at pH 8.0, 10 mM MgCl2, 60 mM KCl, 10 mM dithiothreitol); 75 nM of each dNTP except dTTP; 25 nM dTTP and 35 nM tritium labeled d*TTP; 10 μM inhibitor; and 1.0-2.0 μg of RT. After three minute incubation, the reaction is quenched with 40 μl of 0.56M EDTA. Then 10 μl of streptavidin SPA beads (in suspension) are added and incubated at 37° C. for 10 minutes. Finally, 850 μl of a buffer containing 10 mM Tris HCl pH 7.4 and 0.15M NaCl is added. The signal is produced by biotinylated polymers incorporating d*TTP binding to the streptavidin beads which stimulate the scintillant. The amount of d*TTP incorporated in the polymer is measured with a scintillation counter.
Compounds showing good inhibition will give a low number of counts/min (cpm). This number is related to a standard, dimethyl sulfoxide, which is given an arbitrary 100% relative activity. All cpm data in a single run are given a percent of this standard.

| Structure (SMILES) | IC50 (HIV integrase [1]) [µM] | IC50 (HIV integrase [2]) [µM] | remaining activity at 10 µM [3] [%] | IC50 ([3]; read-out: IC50 (RT activity)) [µM] |
| --- | --- | --- | --- | --- |
| O=C(Nc1ccc2c(O)c(N=Nc3ccccc3)c(S(=O)(=O)O)cc2c1)Nc1ccc2c(O)c(N=Nc3ccccc3)c(S(=O)(=O)O)cc2c1 [Compound 62] | 0.4 | 0.5 |  |  |
| CCOC(=O)c1c[nH]nc1N=Nc1c(S(=O)(=O)O)cc2cc(NC(=O)Nc3ccc4c(O)c(N=Nc5n[nH]cc5C(=O)OCC)c(S(=O)(=O)O)cc4c3)ccc2c1O [Compound 64] | > 3 | > 3 |  |  |
| O=C(Nc1ccc2c(O)c(N=Nc3ncn[nH]3)c(S(=O)(=O)O)cc2c1)Nc1ccc2c(O)c(N=Nc3ncn[nH]3)c(S(=O)(=O)O)cc2c1 [Compound 65] | 0.8 | 0.5 |  |  |
| COc1cc(N=Nc2c(S(=O)(=O)O)cc3cc(NC(=O)Nc4ccc5c(O)c(N=Nc6cc(OC)c(OC)c(OC)c6)c(S(=O)(=O)O)cc5c4)ccc3c2O)cc(OC)c1OC [Compound 66] | 0.8 | 0.5 |  |  |
| O=C(Nc1ccc2c(O)c(N=Nc3ccc(C(=O)O)cc3)c(S(=O)(=O)O)cc2c1)Nc1ccc2c(O)c(N=Nc3ccc(C(=O)O)cc3)c(S(=O)(=O)O)cc2c1 [Compound 67] | 0.09 | 0.25 |  |  |
| O=C(O)CCc1ccc(N=Nc2c(S(=O)(=O)O)cc3cc(NC(=O)Nc4ccc5c(O)c(N=Nc6ccc(CCC(=O)O)cc6)c(S(=O)(=O)O)cc5c4)ccc3c2O)cc1 [Compound 68] | 0.4 | 0.4 |  |  |
| O=C(Nc1ccc2c(O)c(N=Nc3ccc(F)cc3)c(S(=O)(=O)O)cc2c1)Nc1ccc2c(O)c(N=Nc3ccc(F)cc3)c(S(=O)(=O)O)cc2c1 [Compound 69] | 0.7 | 0.9 |  |  |
| O=C(Nc1ccc2c(O)c(N=Nc3ccc(Cl)cc3)c(S(=O)(=O)O)cc2c1)Nc1ccc2c(O)c(N=Nc3ccc(Cl)cc3)c(S(=O)(=O)O)cc2c1 [Compound 70] | > 3 | > 3 |  |  |
| O=C(Nc1ccc2c(O)c(N=Nc3ccc(I)cc3)c(S(=O)(=O)O)cc2c1)Nc1ccc2c(O)c(N=Nc3ccc(I)cc3)c(S(=O)(=O)O)cc2c1 [Compound 71] | 0.9 | 1 |  |  |
| CC(=O)Nc1ccc(N=Nc2c(S(=O)(=O)O)cc3cc(NC(=O)Nc4ccc5c(O)c(N=Nc6ccc(NC(C)=O)cc6)c(S(=O)(=O)O)cc5c4)ccc3c2O)cc1 [Compound 72] | 1 | 0.5 |  |  |
| COc1ccc(N=Nc2c(S(=O)(=O)O)cc3cc(NC(=O)Nc4ccc5c(O)c(N=Nc6ccc(OC)cc6)c(S(=O)(=O)O)cc5c4)ccc3c2O)cc1 [Compound 73] | 1 | 0.6 |  |  |
| C=Cc1ccc(N=Nc2c(S(=O)(=O)O)cc3cc(NC(=O)Nc4ccc5c(O)c(N=Nc6ccc(C=C)cc6)c(S(=O)(=O)O)cc5c4)ccc3c2O)cc1 [Compound 74] | 2 | 1.5 |  |  |
| O=C(O)Cc1ccc(N=Nc2c(S(=O)(=O)O)cc3cc(NC(=O)C(=O)Nc4ccc5c(O)c(N=Nc6ccc(CC(=O)O)cc6)c(S(=O)(=O)O)cc5c4)ccc3c2O)cc1 [Compound 93] | 0.9 | 0.5 |  |  |
| O=C(O)CCc1ccc(N=Nc2c(S(=O)(=O)O)cc3cc(NC(=O)C(=O)Nc4ccc5c(O)c(N=Nc6ccc(CCC(=O)O)cc6)c(S(=O)(=O)O)cc5c4)ccc3c2O)cc1 [Compound 94] | 1 | 0.4 |  |  |
| O=C(O)CCCc1ccc(N=Nc2c(S(=O)(=O)O)cc3cc(NC(=O)C(=O)Nc4ccc5c(O)c(N=Nc6ccc(CCCC(=O)O)cc6)c(S(=O)(=O)O)cc5c4)ccc3c2O)cc1 [Compound 95] | 0.4 | 0.7 |  |  |
| O=C(Nc1ccc2c(O)c(N=Nc3cccc(C(=O)O)c3)c(S(=O)(=O)O)cc2c1)C(=O)Nc1ccc2c(O)c(N=Nc3cccc(C(=O)O)c3)c(S(=O)(=O)O)cc2c1 [Compound 96] | 0.5 | 0.4 |  |  |
| O=C(O)CC(C(=O)O)c1ccc(N=Nc2c(S(=O)(=O)O)cc3cc(NC(=O)C(=O)Nc4ccc5c(O)c(N=Nc6ccc(C(CC(=O)O)C(=O)O)cc6)c(S(=O)(=O)O)cc5c4)ccc3c2O)cc1 (centres unmarked) [Compound 97] | 0.5 | 1 |  |  |
| COc1cc(N=Nc2c(S(=O)(=O)O)cc3cc(NC(=O)C(=O)Nc4ccc5c(O)c(N=Nc6cc(OC)c(C(=O)O)cc6Cl)c(S(=O)(=O)O)cc5c4)ccc3c2O)c(Cl)cc1C(=O)O [Compound 100] | 0.4 | 0.7 |  |  |
| COc1ccc(C(=O)O)c(N=Nc2c(S(=O)(=O)O)cc3cc(NC(=O)C(=O)Nc4ccc5c(O)c(N=Nc6c(C(=O)O)ccc(OC)c6OC)c(S(=O)(=O)O)cc5c4)ccc3c2O)c1OC [Compound 101] | 0.5 | 2 |  |  |

| Structure (SMILES) | IC50 (HIV integrase [1]) [µM] | IC50 (HIV integrase [2]) [µM] | remaining activity at 10 µM [3] [%] | IC50 ([3]; read-out: IC50 (RT activity)) [µM] |
| --- | --- | --- | --- | --- |
| COc1cc(C(=O)O)c(N=Nc2c(S(=O)(=O)O)cc3cc(NC(=O)C(=O)Nc4ccc5c(O)c(N=Nc6c(C(=O)O)cc(OC)c(OC)c6OC)c(S(=O)(=O)O)cc5c4)ccc3c2O)c(OC)c1OC [Compound 102] | 0.6 | 0.7 |  |  |
| O=C(Nc1ccc2c(O)c(N=Nc3cc(C(=O)O)ccc3C(=O)O)c(S(=O)(=O)O)cc2c1)C(=O)Nc1ccc2c(O)c(N=Nc3cc(C(=O)O)ccc3C(=O)O)c(S(=O)(=O)O)cc2c1 [Compound 104] | 0.6 | 0.4 |  |  |
| O=C(Nc1ccc2c(O)c(N=Nc3ccccc3)c(S(=O)(=O)O)cc2c1)C(=O)Nc1ccc2c(O)c(N=Nc3ccccc3)c(S(=O)(=O)O)cc2c1 [Compound 106] | 1.5 | 0.4 |  |  |
| O=C(O)CCC(NC(=O)c1ccc(N=Nc2c(S(=O)(=O)O)cc3cc(NC(=O)C(=O)Nc4ccc5c(O)c(N=Nc6ccc(C(=O)NC(CCC(=O)O)C(=O)O)cc6)c(S(=O)(=O)O)cc5c4)ccc3c2O)cc1)C(=O)O (centres unmarked) [Compound 107] | 0.7 | 0.5 |  |  |
| CC(=O)Nc1ccc(N=Nc2c(S(=O)(=O)O)cc3cc(NC(=O)C(=O)Nc4ccc5c(O)c(N=Nc6ccc(NC(C)=O)cc6)c(S(=O)(=O)O)cc5c4)ccc3c2O)cc1 [Compound 108] | 1 | 0.7 |  |  |
| COc1cc(N=Nc2c(S(=O)(=O)O)cc3cc(NC(=O)C(=O)Nc4ccc5c(O)c(N=Nc6cc(OC)c(OC)c(OC)c6)c(S(=O)(=O)O)cc5c4)ccc3c2O)cc(OC)c1OC [Compound 110] | 1.1 | 0.4 |  |  |
| O=C(O)/C=C/c1ccc(N=Nc2c(S(=O)(=O)O)cc3cc(Nc4c(Nc5ccc6c(O)c(N=Nc7ccc(/C=C/C(=O)O)cc7)c(S(=O)(=O)O)cc6c5)c(=O)c4=O)ccc3c2O)cc1 [Compound 185] |  |  | 0.6 |  |
| O=C(O)c1ccc(N=Nc2c(S(=O)(=O)O)cc3cc(Nc4c(Nc5ccc6c(O)c(N=Nc7ccc(C(=O)O)cc7)c(S(=O)(=O)O)cc6c5)c(=O)c4=O)ccc3c2O)cc1 [Compound 186] |  |  | 0.5 |  |
| O=C(O)Cc1ccc(N=Nc2c(S(=O)(=O)O)cc3cc(Nc4c(Nc5ccc6c(O)c(N=Nc7ccc(CC(=O)O)cc7)c(S(=O)(=O)O)cc6c5)c(=O)c4=O)ccc3c2O)cc1 [Compound 187] |  |  | 0.3 |  |
| O=C(O)CCc1ccc(N=Nc2c(S(=O)(=O)O)cc3cc(Nc4c(Nc5ccc6c(O)c(N=Nc7ccc(CCC(=O)O)cc7)c(S(=O)(=O)O)cc6c5)c(=O)c4=O)ccc3c2O)cc1 [Compound 188] |  |  | 0.3 |  |
| O=C(O)CCCc1ccc(N=Nc2c(S(=O)(=O)O)cc3cc(Nc4c(Nc5ccc6c(O)c(N=Nc7ccc(CCCC(=O)O)cc7)c(S(=O)(=O)O)cc6c5)c(=O)c4=O)ccc3c2O)cc1 [Compound 189] |  |  | 1 |  |
| O=C(O)c1cccc(N=Nc2c(S(=O)(=O)O)cc3cc(Nc4c(Nc5ccc6c(O)c(N=Nc7cccc(C(=O)O)c7)c(S(=O)(=O)O)cc6c5)c(=O)c4=O)ccc3c2O)c1 [Compound 190] |  |  | 0.5 |  |
| O=C(O)CC(C(=O)O)c1ccc(N=Nc2c(S(=O)(=O)O)cc3cc(Nc4c(Nc5ccc6c(O)c(N=Nc7ccc(C(CC(=O)O)C(=O)O)cc7)c(S(=O)(=O)O)cc6c5)c(=O)c4=O)ccc3c2O)cc1 (centres unmarked) [Compound 191] |  |  | 0.3 |  |
| Cc1cc(C(=O)O)ccc1N=Nc1c(S(=O)(=O)O)cc2cc(Nc3c(Nc4ccc5c(O)c(N=Nc6ccc(C(=O)O)cc6C)c(S(=O)(=O)O)cc5c4)c(=O)c3=O)ccc2c1O [Compound 192] |  |  | 0.3 |  |
| COc1cc(C(=O)O)ccc1N=Nc1c(S(=O)(=O)O)cc2cc(Nc3c(Nc4ccc5c(O)c(N=Nc6ccc(C(=O)O)cc6OC)c(S(=O)(=O)O)cc5c4)c(=O)c3=O)ccc2c1O [Compound 193] |  |  | 0.4 |  |
| O=C(O)c1c(F)c(F)c(N=Nc2c(S(=O)(=O)O)cc3cc(Nc4c(Nc5ccc6c(O)c(N=Nc7c(F)c(F)c(C(=O)O)c(F)c7F)c(S(=O)(=O)O)cc6c5)c(=O)c4=O)ccc3c2O)c(F)c1F [Compound 194] |  |  |  | 0.44 |
| O=c1c(Nc2ccc3cc(S(=O)(=O)O)cc(O)c3c2)c(Nc2ccc3cc(S(=O)(=O)O)cc(O)c3c2)c1=O [Compound 198] |  |  | 37 |  |
| O=C(O)/C=C/c1ccc(N=Nc2c(S(=O)(=O)O)cc3ccc(Nc4c(Nc5ccc6cc(S(=O)(=O)O)c(N=Nc7ccc(/C=C/C(=O)O)cc7)c(O)c6c5)c(=O)c4=O)cc3c2O)cc1 [Compound 199] |  |  | 1.2 |  |
